ChEMBL document CHEMBL1133531, “Carbonic anhydrase inhibitors: perfluoroalkyl/aryl-substituted derivatives of aromatic/heterocyclic sulfonamides as topical intraocular pressure-lowering agents with prolonged duration of action” (J Med Chem, 2000)

Experiments:
[1] = target: Carbonic anhydrase 1 (Homo sapiens, UniProt P00915)
Description: Inhibition of human recombinant carbonic anhydrase I (CA1)

[2] = target: T1, Carbonic anhydrase 4 (Bos taurus, UniProt Q95323)
T1 sequence (Q95323 whole entry): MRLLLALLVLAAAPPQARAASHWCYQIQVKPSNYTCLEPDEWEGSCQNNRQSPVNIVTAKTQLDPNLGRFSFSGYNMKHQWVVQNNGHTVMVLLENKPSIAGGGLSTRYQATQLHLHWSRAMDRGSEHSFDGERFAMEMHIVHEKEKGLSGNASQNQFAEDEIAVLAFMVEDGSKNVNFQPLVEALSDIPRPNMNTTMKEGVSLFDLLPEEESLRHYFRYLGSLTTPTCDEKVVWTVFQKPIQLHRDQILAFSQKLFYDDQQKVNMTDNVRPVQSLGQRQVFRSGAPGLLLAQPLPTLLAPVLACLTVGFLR
Description: Inhibition of bovine carbonic anhydrase IV (CA4) from bovine lung microsomes

Chain of Carbonic anhydrase 1 (P00915 whole entry): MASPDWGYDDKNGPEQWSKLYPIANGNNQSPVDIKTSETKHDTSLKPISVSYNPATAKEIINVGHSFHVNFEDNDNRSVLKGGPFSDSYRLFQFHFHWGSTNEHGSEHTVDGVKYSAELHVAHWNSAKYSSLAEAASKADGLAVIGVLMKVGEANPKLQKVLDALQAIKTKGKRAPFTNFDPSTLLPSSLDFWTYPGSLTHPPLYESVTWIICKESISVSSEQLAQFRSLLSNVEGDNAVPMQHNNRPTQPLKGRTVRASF

SMILES | Ki [1] [nM] | Ki [2] [nM]
Cn1nc(S(N)(=O)=O)s/c1=N/S(=O)(=O)c1ccc(NS(=O)(=O)c2c(F)c(F)c(F)c(F)c2F)cc1 | 21 | 9
NS(=O)(=O)c1cccc(NS(=O)(=O)c2ccc(NS(=O)(=O)C(F)(F)C(F)(F)C(F)(F)C(F)(F)F)cc2)c1 | 4000 | 36
NS(=O)(=O)c1ccc(NNS(=O)(=O)C(F)(F)C(F)(F)C(F)(F)C(F)(F)F)cc1 | 15000 | 600
NS(=O)(=O)c1ccc(COS(=O)(=O)c2c(F)c(F)c(F)c(F)c2F)cc1 | 290 | 100
NS(=O)(=O)c1cccc(NS(=O)(=O)c2ccc(NC(=O)c3c(F)c(F)c(F)c(F)c3F)cc2)c1 | 8000 | 55
NS(=O)(=O)c1cc(S(N)(=O)=O)c(NS(=O)(=O)C(F)(F)F)cc1Cl | 550 | 150
NS(=O)(=O)c1ccc(NS(=O)(=O)C(F)(F)C(F)(F)C(F)(F)C(F)(F)F)cc1 | 15200 | 480
NS(=O)(=O)c1ccccc1NS(=O)(=O)c1c(F)c(F)c(F)c(F)c1F | 1390 | 680
NS(=O)(=O)c1ccc(NS(=O)(=O)C(F)(F)F)c(F)c1 | 100000 | 29000
NS(=O)(=O)c1ccc(NC(=O)c2c(F)c(F)c(F)c(F)c2F)c(Cl)c1 | 1080 | 590
NS(=O)(=O)c1nc2ccc(OCCOC(=O)c3c(F)c(F)c(F)c(F)c3F)cc2s1 | 65 | 11
NS(=O)(=O)c1ccc(Nc2ccnc(NC(=O)c3c(F)c(F)c(F)c(F)c3F)n2)cc1 | 7700 | 62
NS(=O)(=O)c1nnc(NS(=O)(=O)c2ccc(NS(=O)(=O)c3c(F)c(F)c(F)c(F)c3F)cc2)s1 | 24 | 8
NS(=O)(=O)c1cccc(NS(=O)(=O)C(F)(F)F)c1 | 188000 | 95300
NS(=O)(=O)c1ccccc1NS(=O)(=O)C(F)(F)F | 175000 | 97000
NS(=O)(=O)c1ccc(NS(=O)(=O)C(F)(F)F)cc1 | 166000 | 64600
NS(=O)(=O)c1nnc(NC(=O)CCNS(=O)(=O)C(F)(F)F)s1 | 3000 | 40
NS(=O)(=O)c1ccc(NNS(=O)(=O)c2c(F)c(F)c(F)c(F)c2F)cc1 | 1000 | 500
NS(=O)(=O)c1nc2ccc(OCCOS(=O)(=O)c3c(F)c(F)c(F)c(F)c3F)cc2s1 | 18 | 7
NS(=O)(=O)c1cc(S(N)(=O)=O)c(NS(=O)(=O)C(F)(F)F)c(Cl)c1Cl | 5500 | 725

SMILES | Ki [1] [nM] | Ki [2] [nM]
NS(=O)(=O)c1ccc(COS(=O)(=O)C(F)(F)F)cc1 | 135000 | 24100
NS(=O)(=O)c1ccc(NS(=O)(=O)C(F)(F)F)c(I)c1 | 210000 | 49000
NS(=O)(=O)c1ccc(CNS(=O)(=O)c2c(F)c(F)c(F)c(F)c2F)cc1 | 790 | 240
NS(=O)(=O)c1cc(S(N)(=O)=O)c(NS(=O)(=O)C(F)(F)C(F)(F)C(F)(F)C(F)(F)F)c(Cl)c1Cl | 5100 | 160
NS(=O)(=O)c1ccc(NNC(=O)c2c(F)c(F)c(F)c(F)c2F)cc1 | 1500 | 980
NS(=O)(=O)c1ccc(NC(=O)c2c(F)c(F)c(F)c(F)c2F)c(I)c1 | 2560 | 1040
NS(=O)(=O)c1cc(S(N)(=O)=O)c(NS(=O)(=O)C(F)(F)C(F)(F)C(F)(F)C(F)(F)F)cc1Cl | 400 | 43
NS(=O)(=O)c1cccc(NS(=O)(=O)c2ccc(NS(=O)(=O)C(F)(F)F)cc2)c1 | 5000 | 45
NS(=O)(=O)c1ccc(NS(=O)(=O)c2c(F)c(F)c(F)c(F)c2F)cc1 | 890 | 410
NS(=O)(=O)c1cccc(NS(=O)(=O)c2c(F)c(F)c(F)c(F)c2F)c1 | 1100 | 500
NS(=O)(=O)c1cc(S(N)(=O)=O)c(NS(=O)(=O)c2c(F)c(F)c(F)c(F)c2F)cc1Cl | 300 | 26
NS(=O)(=O)c1ccc(NS(=O)(=O)c2c(F)c(F)c(F)c(F)c2F)c(Cl)c1 | 1450 | 540
NS(=O)(=O)c1ccc(Nc2ccnc(NS(=O)(=O)c3c(F)c(F)c(F)c(F)c3F)n2)cc1 | 325 | 24
NS(=O)(=O)c1ccc(NS(=O)(=O)c2ccc(NS(=O)(=O)c3c(F)c(F)c(F)c(F)c3F)cc2)cc1 | 125 | 15
NS(=O)(=O)c1nnc(NC(=O)CCNC(=O)c2c(F)c(F)c(F)c(F)c2F)s1 | 300 | 10
NS(=O)(=O)c1ccc(CCOC(=O)c2c(F)c(F)c(F)c(F)c2F)cc1 | 1250 | 400
NS(=O)(=O)c1cccc(NS(=O)(=O)c2ccc(NS(=O)(=O)c3c(F)c(F)c(F)c(F)c3F)cc2)c1 | 150 | 16
NS(=O)(=O)c1ccc(CCNS(=O)(=O)c2c(F)c(F)c(F)c(F)c2F)cc1 | 760 | 230
Cn1nc(S(N)(=O)=O)s/c1=N/C(=O)c1c(F)c(F)c(F)c(F)c1F | 270 | 8
NS(=O)(=O)c1ccc(NC(=O)c2c(F)c(F)c(F)c(F)c2F)c(F)c1 | 760 | 185

Continued, values first:

Ki [1] [nM] | Ki [2] [nM] | SMILES
15000 | 11000 | NS(=O)(=O)c1ccc(COC(=O)C(F)(F)C(F)(F)C(F)(F)C(F)(F)C(F)(F)C(F)(F)C(F)(F)C(F)(F)F)cc1
300 | 13 | NS(=O)(=O)c1nnc(NC(=O)C(F)(F)C(F)(F)C(F)(F)C(F)(F)C(F)(F)C(F)(F)C(F)(F)C(F)(F)F)s1
105 | 9 | NS(=O)(=O)c1nc2ccc(OC(=O)c3c(F)c(F)c(F)c(F)c3F)cc2s1
22000 | 900 | NS(=O)(=O)c1ccccc1NS(=O)(=O)C(F)(F)C(F)(F)C(F)(F)C(F)(F)F
400 | 12 | NS(=O)(=O)c1nnc(NS(=O)(=O)C(F)(F)C(F)(F)C(F)(F)C(F)(F)C(F)(F)C(F)(F)C(F)(F)C(F)(F)F)s1
350 | 10 | Cn1nc(S(N)(=O)=O)sc1=NS(=O)(=O)C(F)(F)C(F)(F)C(F)(F)C(F)(F)F
10200 | 880 | NS(=O)(=O)c1ccc(NS(=O)(=O)C(F)(F)C(F)(F)C(F)(F)C(F)(F)F)c(Cl)c1
1000 | 24 | Cn1nc(S(N)(=O)=O)s/c1=N/S(=O)(=O)c1ccc(NS(=O)(=O)C(F)(F)C(F)(F)C(F)(F)C(F)(F)F)cc1
45 | 9 | NS(=O)(=O)c1nc2ccc(NC(=O)C(F)(F)C(F)(F)C(F)(F)C(F)(F)C(F)(F)C(F)(F)C(F)(F)C(F)(F)F)cc2s1
3600 | 33 | NS(=O)(=O)c1cccc(NS(=O)(=O)c2ccc(NS(=O)(=O)C(F)(F)C(F)(F)C(F)(F)C(F)(F)C(F)(F)C(F)(F)C(F)(F)C(F)(F)F)cc2)c1
4500 | 34 | NS(=O)(=O)c1ccc(Nc2ccnc(NS(=O)(=O)C(F)(F)C(F)(F)C(F)(F)C(F)(F)C(F)(F)C(F)(F)C(F)(F)C(F)(F)F)n2)cc1
23400 | 1040 | NS(=O)(=O)c1ccc(NS(=O)(=O)C(F)(F)C(F)(F)C(F)(F)C(F)(F)F)c(I)c1
1600 | 935 | NS(=O)(=O)c1cccc(NC(=O)C(F)(F)C(F)(F)C(F)(F)C(F)(F)C(F)(F)C(F)(F)C(F)(F)C(F)(F)F)c1
54 | 6 | NS(=O)(=O)c1nc2ccc(NS(=O)(=O)C(F)(F)C(F)(F)C(F)(F)C(F)(F)F)cc2s1
1100 | 25 | Cn1nc(S(N)(=O)=O)s/c1=N/S(=O)(=O)c1ccc(NS(=O)(=O)C(F)(F)C(F)(F)C(F)(F)C(F)(F)C(F)(F)C(F)(F)C(F)(F)C(F)(F)F)cc1
29 | 7 | NS(=O)(=O)c1nc2ccc(OS(=O)(=O)C(F)(F)C(F)(F)C(F)(F)C(F)(F)F)cc2s1
1000 | 705 | NS(=O)(=O)c1ccc(CNS(=O)(=O)C(F)(F)C(F)(F)C(F)(F)C(F)(F)C(F)(F)C(F)(F)C(F)(F)C(F)(F)F)cc1
1400 | 850 | NS(=O)(=O)c1ccc(NC(=O)C(F)(F)C(F)(F)C(F)(F)C(F)(F)C(F)(F)C(F)(F)C(F)(F)C(F)(F)F)cc1
3400 | 15000 | NS(=O)(=O)c1ccc(NS(=O)(=O)C(F)(F)C(F)(F)C(F)(F)C(F)(F)C(F)(F)C(F)(F)C(F)(F)C(F)(F)F)c(I)c1
37 | 14 | NS(=O)(=O)c1nc2ccc(OC(=O)C(F)(F)C(F)(F)C(F)(F)C(F)(F)C(F)(F)C(F)(F)C(F)(F)C(F)(F)F)cc2s1
300 | 8 | NS(=O)(=O)c1nnc(NC(=O)CCNC(=O)C(F)(F)C(F)(F)C(F)(F)C(F)(F)C(F)(F)C(F)(F)C(F)(F)C(F)(F)F)s1
900 | 17 | NS(=O)(=O)c1nnc(NS(=O)(=O)c2ccc(NS(=O)(=O)C(F)(F)C(F)(F)C(F)(F)C(F)(F)F)cc2)s1
1000 | 750 | NS(=O)(=O)c1ccc(CNC(=O)C(F)(F)C(F)(F)C(F)(F)C(F)(F)C(F)(F)C(F)(F)C(F)(F)C(F)(F)F)cc1
24500 | 10600 | NS(=O)(=O)c1ccc(COS(=O)(=O)C(F)(F)C(F)(F)C(F)(F)C(F)(F)F)cc1
965 | 470 | NS(=O)(=O)c1ccc(CCNS(=O)(=O)C(F)(F)C(F)(F)C(F)(F)C(F)(F)C(F)(F)C(F)(F)C(F)(F)C(F)(F)F)cc1
1450 | 500 | NS(=O)(=O)c1ccc(NS(=O)(=O)C(F)(F)C(F)(F)C(F)(F)C(F)(F)C(F)(F)C(F)(F)C(F)(F)C(F)(F)F)c(F)c1
1500 | 1200 | NS(=O)(=O)c1ccccc1NS(=O)(=O)C(F)(F)C(F)(F)C(F)(F)C(F)(F)C(F)(F)C(F)(F)C(F)(F)C(F)(F)F
